These are literature values, as cited in patent publication US7887847B2, “Nutritional supplement for treatment of ocular diseases” (priority 2004, dated 2011).

The subject of the series is macular degeneration. As to conditions: adults with the highest dietary intake compared with people with the lowest intake.

As to `CC1=C[C@H](O)CC(C)(C)[C@H]1/C=C/C(C)=C/C=C/C(C)=C/C=C/C=C(C)/C=C/C=C(C)/C=C/C1=C(C)C[C@@H](O)CC1(C)C` [lutein, Lutein], the “decreased risk of macular degeneration” value is listed as 57%.
